Experimental data as given in PMC2912373, “Low-Density Lipoprotein Receptor-Related Protein 1 (LRP1) Mediates Neuronal Aβ42 Uptake and Lysosomal Trafficking” (PLoS ONE, 2010).

Key:
GT1-7 cells = test: FAM-Aβ42 internalization after LRP1 siRNA knockdown, FACS; format: cell-based; settings: 500 nM FAM-Aβ42, 37°C, 4 h, 72 h after LRP1 siRNA; FACS of pronase-treated cells
Procedure: (§1) To rule out cell type-specific effects and artifacts due to the expression of LRP1 minireceptor, we performed similar FAM-Aβ42 uptake experiments in GT1-7 neuronal cells with reduced endogenous LRP1 levels by siRNA knockdown (Fig. 3A), and in mouse embryonic fibroblasts from both wild-type (MEF1) and LRP1 knockout mice (MEF2) (Fig. 3B). GT1-7 cells were plated and treated as indicated in the Experimental Procedures and GT1-7 and MEF cells were incubated with 500 nM of FAM-Aβ42 at 37°C for 4 h. Steady-state levels of intracellular Aβ42 were determined by flow cytometric analysis of pronase-treated cells. […]
(§2) Figure 3 LRP1 mediates internalization and accumulation of Aβ42 in GT1-7 and MEF cells. […] After 72 h, cells were treated with 500 nM FAM-Aβ42 for 4 h and intracellular Aβ42 was determined by flow cytometric analyses of pronase-treated cells as described in the Experimental Procedures. […] Wild type (MEF1) and LRP1 knockout (MEF2) fibroblasts were treated with 500 nM FAM-Aβ42 for 4 h, and intracellular Aβ42 was determined by flow cytometric analyses. ** p<0.01, t-test. n = 3. C, cell lysates from GT1-7 and MEF cells treated as in A and B, analyzed by 7.5% SDS-PAGE, and Western blotted with anti-LRP1 antibodies.
(§3) For quantification of Aβ uptake experiments, stable N2a cells were plated into 12-well plates at 16,250 cells/cm^2 and grown overnight. […]

MEF cells = test: FAM-Aβ42 internalization in wild-type (MEF1) and LRP1 knockout (MEF2) fibroblasts, FACS; format: cell-based, mouse; settings: 500 nM FAM-Aβ42, 37°C, 4 h, n = 3, p<0.01
Procedure: as §1, §2, §3

With “FAM-Aβ42: FAM-Aβ42 peptide (23526) from Anaspec; amyloid-β 42 with carboxyfluorescein at the N-terminal region” the “internalization of FAM-Aβ42 in cells with decreased LRP1 levels vs scrambled siRNA control” value (GT1-7 cells) was “decrease” and the “internalization of FAM-Aβ42 in MEF2 (LRP1 knockout) compared to MEF1 (wild type)” value (MEF cells) was “decrease”.
